# Tests used:
# [1] = system: progerin–PTBP1 interaction; test: CoIP of progerin and PTBP1 in HEK-293T cells; type: cell-based; details: CoIP in HEK-293T; HGPS cells
# Method: (§1) Detailed descriptions of CoIP were described previously[55],[56]. Cells were harvested and washed three times in cold PBS, then lysed in CoIP buffer (25 mM Tris-HCl (pH 7.5), 150 mM KCl, 5 mM EDTA, and 0.5% NP-40) plus protease inhibitor cocktail tablet (Roche). Incubate on ice and shock lysates on the vortex shaker 15 times for 30 s each. Microcentrifuge in 12,000g for 15 min at 4 °C, collect the supernatant, and incubate with 3 μg primary antibodies with gentle shaking overnight at 4 °C, followed by adding 20–40 μl Pure Proteome Protein A/G Mix Magnetic Beads (Millipore, catalog no. […]02) for 3 h. Wash the beads three times with 1 ml CoIP buffer for 8 min each, resuspend in 50 μl 1× loading buffer, and incubate at 100 °C for 8 min. Throw beads away and analyze by immunoblotting.
# [2] = system: progerin–BUBR1 interaction; test: CoIP of progerin and BUBR1 in HEK-293T cells; type: cell-based; details: HEK-293T, Flag-progerin, UPCP 6 μM, 12 μM and 18 μM
# Method: as §1
# [3] = system: p53, IL-6 and p21 in HGADFN003 cells; test: Western blot of p53, IL-6 and p21 in HGADFN003 cells; type: cell-based, human
# Method: Western blot was performed as previously described. Cells were lysed in 1× Laemmli sample buffer after washing twice in cold PBS without calcium and magnesium. Protein concentrations were determined using the bicinchoninic acid (BCA) protein assay. Protein lysates were subjected to SDS–PAGE, transferred to 0.45-μm pore size hydrophobic PVDF transfer membrane (Merck Millipore), detected with the appropriate primary antibodies coupled with horseradish peroxidase-conjugated corresponding secondary antibodies, and visualized using enhanced chemiluminescence ECL reagent (GE Healthcare). The Tanon 5500 high-definition low-illumination CCD system (Tanon FLI Capture v.1.02) was used to capture chemiluminescent signals.
# HGADFN167 cells = test: SA-β-gal staining of HGADFN167 cells; type: cell-based, human
# Method: SA-β-gal staining was performed as previously described. Cells were fixed in 0.5% glutaraldehyde for 15 min at room temperature, washed three times with PBS (pH 6.0) containing 1 mM MgCl2 and exposed overnight 37 °C to containing 1 mg ml^–1 5-bromo-4-chloro-3-indolyl-β-D-galactopyranoside (MCE, catalog no. HY-15934), 0.12 mM potassium ferrocyanide (Sigma, catalog no. P3289), 0.12 mM potassium ferricyanide (Sigma, catalog no. P8131) and 1 mM MgCl2 PBS buffer (pH 6.0). Cells were washed three times with H2O and observed under a microscope (OLYMPUS CKX53). SA-β-gal positive cells were quantified by investigators who were blinded to the identity of the analyzed cell.
# PTBP1 = molecular target: T1, PTBP1 (Homo sapiens, UniProt P26599); test: Pulldown assay of UPCP and PTBP1; type: binding; details: pulldown (and MST); His-UPCP 10 μg with Flag beads-PTBP1, 16 h at 4 °C
# T1 construct: made in house
# T1 sequence (P26599 whole entry): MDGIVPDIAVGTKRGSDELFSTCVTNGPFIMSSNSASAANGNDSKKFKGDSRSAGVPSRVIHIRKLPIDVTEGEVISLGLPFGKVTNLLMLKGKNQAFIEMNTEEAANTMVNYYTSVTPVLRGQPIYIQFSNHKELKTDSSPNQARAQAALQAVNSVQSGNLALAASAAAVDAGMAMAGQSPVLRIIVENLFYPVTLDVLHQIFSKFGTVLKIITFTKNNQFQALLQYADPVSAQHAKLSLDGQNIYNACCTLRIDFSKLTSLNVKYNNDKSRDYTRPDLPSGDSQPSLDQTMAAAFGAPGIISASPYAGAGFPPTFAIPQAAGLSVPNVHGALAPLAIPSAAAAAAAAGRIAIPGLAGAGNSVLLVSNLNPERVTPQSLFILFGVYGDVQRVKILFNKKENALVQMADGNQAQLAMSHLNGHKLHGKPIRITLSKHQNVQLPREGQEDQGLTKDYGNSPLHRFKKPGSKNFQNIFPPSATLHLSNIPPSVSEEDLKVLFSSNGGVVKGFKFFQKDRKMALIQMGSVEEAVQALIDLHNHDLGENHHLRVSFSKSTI
# Method: Cells were harvested and lysed in buffer A mixed with protease inhibitor cocktail tablet (Roche) after 48 h. […] The beads were washed three times using 1× Tris saline buffer (50 mM Tris-HCl (pH 7.4) and 150 mM NaCl)) for 8 min each. The bound proteins BUBR1 or PTBP1 were eluted with 3×Flag peptide (ApexBio) for 2 h at 4 °C. Finally, BUBR1 or PTBP1 was concentrated and recovered by using the Centrifugal Filters (Amicon Ultra).
# A detailed description of the pulldown assay was described previously. His-UPCP fusion protein was expression in bacteria (BL21) and induced with 0.5 mM isopropyl-β-D-thio-galactoside for 16 h at 16 °C. The bacteria were harvested and lysed in TEN buffer (20 mM Tris-HCl (pH7.4), 0.1mM EDTA, 100 mM NaCl). […] His-UPCP was eluted with Imidazole eluent (50 mM NaH2PO4, 300 mM NaCl and 50 mM Imidazole) for 2 h at 4 °C and concentrated and recovered using centrifugal filters (Amicon Ultra). For the pulldown of His-UPCP and Flag-BUBR1 or Flag-PTBP1, 10 μg His-UPCP was incubated with Flag beads (Biotool, catalog no. B23102), Flag beads-BUBR1 or Flag beads-PTBP1 respectively for 16 h at 4 °C. The beads were washed three times with PBS and added to 1× loading buffer for western blot.
# PTBP1–BUBR1 mRNA 3′-UTR = test: RIP assay of PTBP1 and BUBR1 mRNA 3′-UTR in HEK-293T cells; type: cell-based; details: for PTBP1 enrichment on BUBR1-3'UTR (2-ΔΔCt): Fig. 4n, PTBP1+progerin+UPCP, P=0.0491 vs PTBP1+progerin
# Method: RIP and RNA pulldown assays were performed as previously described. The RIP experiment was carried out using the EZ-Magna RIP Kit (Millipore, catalog no. 17-701). The coprecipitated RNAs were extracted through Trizol reagent and detected by RT-PCR. The primer sequences for PCR, synthesized by Comate Bioscience, were as follows:
# BUBR1-3′UTR_fwd (5′-[…]-3′) and BUBR1-3′UTR_rev (5′- […]-3′).
substance,measurement,setting,value
"H-YGRKKRRQRRRYNLRSRTVLCGTCGQPADKASASGSGAQSPQNCSIM-OH (cysteines drawn unpaired) [UPCP, unique progerin C-terminal peptide]",interaction of PTBP1 and progerin,[1],weakened the interaction of PTBP1 and progerin
same,interaction between progerin and BUBR1,[2],interfered with the interaction between progerin and BUBR1
same,"level of p53, IL-6 and p21",[3],"decreased level of p53, IL-6 and p21"
same,SA-β-gal positive cells,"HGADFN167 cells; HGADFN167, replicate 1",24%
same,SA-β-gal positive cells,"HGADFN167 cells; HGADFN167, replicate 2",26%
same,SA-β-gal positive cells,"HGADFN167 cells; HGADFN167, replicate 3",20%
same,combination with PTBP1,PTBP1,combined with PTBP1
same,PTBP1 enrichment on BUBR1-3'UTR (2-ΔΔCt),PTBP1–BUBR1 mRNA 3′-UTR; replicate 1,9.032
same,PTBP1 enrichment on BUBR1-3'UTR (2-ΔΔCt),PTBP1–BUBR1 mRNA 3′-UTR; replicate 2,10.1759
same,PTBP1 enrichment on BUBR1-3'UTR (2-ΔΔCt),PTBP1–BUBR1 mRNA 3′-UTR; replicate 3,11.8972
same,binding of PTBP1 to BUBR1 mRNA 3ʹ-UTR,"PTBP1–BUBR1 mRNA 3′-UTR; RIP and RNA pulldown, HEK-293T with or without UPCP",promoted PTBP1 to bind
